Data from publication PMC12027946, “Ionic and Non-Ionic Counterparts Based on Bis(Uracilyl)Alkane Moiety with Highest Selectivity Towards Acetylcholinesterase for Protection Against Organophosphate Poisoning and Treating Alzheimer’s Disease” (International Journal of Molecular Sciences, 2025).
Several values for one entry are separate records, joined by “and”; a condition that tells them apart may be missing. Equal values may be shown once.

Legend:
brain AChE = molecular target: T1, brain AChE (Mus musculus, UniProt P21836); assay: Brain AChE inhibition in vivo; design: species or system mice; conditions: ip
T1 construct: Whole-brain homogenates were prepared in a Potter homogeniser; from tissue; host or cells: whole brain of CD-1 mice
T1 sequence (P21836 32-614): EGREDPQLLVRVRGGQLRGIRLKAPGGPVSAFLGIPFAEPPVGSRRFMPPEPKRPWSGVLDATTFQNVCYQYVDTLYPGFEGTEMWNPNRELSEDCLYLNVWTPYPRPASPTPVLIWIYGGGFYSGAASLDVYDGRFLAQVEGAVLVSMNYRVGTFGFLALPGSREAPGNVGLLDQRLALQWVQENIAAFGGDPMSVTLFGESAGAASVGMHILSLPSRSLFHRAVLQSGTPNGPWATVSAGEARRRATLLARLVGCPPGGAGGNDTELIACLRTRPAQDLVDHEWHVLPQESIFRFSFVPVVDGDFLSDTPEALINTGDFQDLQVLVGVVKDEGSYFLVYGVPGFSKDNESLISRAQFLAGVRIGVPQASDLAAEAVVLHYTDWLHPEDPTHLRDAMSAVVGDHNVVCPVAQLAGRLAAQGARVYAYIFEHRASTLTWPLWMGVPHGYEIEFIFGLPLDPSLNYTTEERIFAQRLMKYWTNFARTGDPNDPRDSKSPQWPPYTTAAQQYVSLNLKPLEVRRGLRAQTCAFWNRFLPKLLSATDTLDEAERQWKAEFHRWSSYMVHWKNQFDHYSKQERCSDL
Experimental: Bisuracil 3c was identified as the most promising for the inhibition of brain AChE in vivo. […].
For the brain AChE inhibition assay, the brains of mice were removed 30 min after i.p. injection of the tested compound (experimental group, n = 6 mice) or following i.p. vehicle injection (control group, n = 6 mice). The brains were subsequently frozen in liquid nitrogen. Whole-brain homogenates were prepared in a Potter homogeniser with 0.05 M Tris–HCl, 1% Triton X–100, 1M NaCl, and 2 mM ethylenediaminetetraacetic acid (pH 7.0; 4 °C; 1 part brain to 2 parts of buffer). The homogenate was centrifuged (14,000× g rpm; t = 4 °C) for 10 min using an Eppendorf 5430R centrifuge with an FA–45–30–11 rotor (Eppendorf AG, Hamburg, Germany). AChE activity in brain homogenates was measured using the method described by Dingova et al. with modification. […] The production of yellow 5–thio–2–nitro–benzoate anion resulting from the reduction of DTNB by thiocholine (the product of enzymatic hydrolysis of ATCH) was measured spectrophotometrically using a Shimadzu UV-1800 spectrophotometer (Shimadzu Co., Kyoto, Japan) according to Ellman’s method. The rate of thiocholine production over 20 min (from 10 to 30 min) was calculated. […] AChE activity was expressed in relation to the amount of total protein, which was determined by the Bradford method.

mice = assay: Open-field test; type: in vivo; conditions: 2b 0.01 mg/kg, 3c 5 mg/kg, i.p.
Experimental: The ability of effective doses of bisuracil 2b (0.01 mg/kg) and bisuracil 3c (5 mg/kg) to induce incapacitation was evaluated. Locomotor activity, measured as the total distance travelled, and exploratory behaviour, assessed by the number of rearings (head inclinations) and head dips, were evaluated using the open-field test. Additionally, motor coordination was analysed using the rotarod test, where the ability of mice to stay on the rotating rod was recorded. The compounds were administered i.p. 30 min before testing, while the control group received an equivalent volume of the vehicle.
To analyse motor function, rotarod and open-field tests were carried out. Mice were randomly divided into 3 groups (n = 12): a control group of mice and groups of mice treated with tested compounds. Tests were conducted 1 h after compound exposure. To assess motor function, mice were first placed on a rotarod treadmill (Ugo Basile, Italy). Rotation speed was fixed at 15 rpm, and the time that each mouse remained on the rod was recorded as the score, with a maximum duration of 300 s per trial. Each mouse underwent 3 trials. After recording the length of time that mice managed to remain on the rotarod (latency to fall), the average of three trials was used for further analysis. Following the rotarod test, motor function was studied in an open field apparatus (Open Science, Krasnogorsk, Russia), as described in [39]. The numbers of rearing and head dips were estimated as indexes of exploratory activity. To assess motor function, the distance travelled in centimetres in the arena was measured, using VideoMot2 software (Version 8.02 (131) 03-07-17 (TSE Systems, Bad Homburg, Germany).

human AChE = molecular target: T2, human AChE (Homo sapiens, UniProt P22303); assay: In vitro cholinesterase inhibition (Ellman), AChE; type: biochemical; conditions: Table 2; human AChE; read-out: IC50 AChE
T2 construct: purchased Sigma-Aldrich
Experimental: Inhibitory activities of the tested compounds against AChE and BChE were measured according to Ellman et al.. Enzyme-catalysed hydrolysis of ATCHh was carried out at 25 °C in 0.1 M phosphate buffer (pH 8.0) containing 0.25 U AChE, 1 mM ATCHh as substrates, and 0.1 mM of DTNB. In experiments with BuChE, 0.1 M phosphate buffer (pH 7.0) and BuTChh as a substrate were used. The tested compounds were pre-incubated with the enzyme for two minutes prior to the addition of the substrate and the subsequent recording of hydrolysis kinetics. […] A sample without an inhibitor was used as a control (100% cholinesterase activity). A sample without a substrate was used as a blank. Experiments were performed in triplicate.

T2 sequence (P22303 32-614): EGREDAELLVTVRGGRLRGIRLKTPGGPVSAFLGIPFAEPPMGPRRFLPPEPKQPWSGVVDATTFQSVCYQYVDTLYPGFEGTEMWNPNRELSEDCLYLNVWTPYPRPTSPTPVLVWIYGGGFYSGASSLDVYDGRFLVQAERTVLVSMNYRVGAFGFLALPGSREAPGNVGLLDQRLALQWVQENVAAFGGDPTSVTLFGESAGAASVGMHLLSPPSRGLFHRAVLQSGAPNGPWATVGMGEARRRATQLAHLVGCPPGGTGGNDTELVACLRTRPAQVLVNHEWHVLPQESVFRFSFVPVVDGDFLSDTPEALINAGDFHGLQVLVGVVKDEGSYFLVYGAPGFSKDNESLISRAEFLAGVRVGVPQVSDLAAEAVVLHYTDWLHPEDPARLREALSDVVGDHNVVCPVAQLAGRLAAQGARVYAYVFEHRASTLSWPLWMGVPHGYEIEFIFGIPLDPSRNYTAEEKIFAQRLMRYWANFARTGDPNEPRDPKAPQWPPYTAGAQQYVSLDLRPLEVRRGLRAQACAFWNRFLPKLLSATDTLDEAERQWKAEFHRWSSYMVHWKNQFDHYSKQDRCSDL

With CCN(CCCCCn1c(=O)ccn(CCCCCn2c(C)cc(=O)n(C)c2=O)c1=O)Cc1ccccc1C#N [3c] the inhibition at 5 mg/kg (brain AChE) was 14.9 ± 3.8%, the inhibition at 10 mg/kg (brain AChE) was 54.2 ± 6.6% and the “distance travelled (open field) vs control group” value (mice) was “no significant differences”. For the same compound, the “number of rearings or head dips (open field)” value (mice) was “neither of the tested compounds significantly influenced” and the IC50 (human AChE) was 2.78 nM and 2.8 nM.
